Results as given in patent US20260256751A1, “COMBINATION OF BETA-2-ADRENERGIC RECEPTOR AGONISTS AND GLP-1 RECEPTOR AGONISTS FOR USE IN TREATING HYPERGLYCAEMIA” (ATROGI AB, priority 2023, published 2026).

Tests used:
[1] = test system: differentiated L6-myotubes; experiment: cAMP production relative to isoprenaline (Biological example 2 of WO 2019/053427); format: cell-based; conditions: 0.25 h, compound at 10 μM, activity relative to isoproterenol at 10 μM
Method in brief: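 Differentiated L6 myotubes stimulated 15 min with test compound or isoprenaline, each at final 1×10^−5 M, in HBSS with 1% BSA, 5 mM HEPES, 1 mM IBMX, pH 7.4. cAMP production by the compound expressed relative to that induced by the same concentration of isoprenaline.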

[2] = test system: differentiated L6-myotubes; experiment: Glucose uptake screen (Biological example 1 of WO 2019/053427); format: cell-based; conditions: compound at 10 μM, activity relative to isoproterenol at 10 μM, read-out: Biological example 1 of WO 2019/053427 (GU)
Method in brief: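 Rat L6 myoblasts were differentiated into myotubes over 7 days in 2% FBS, then serum-starved overnight. Cells were stimulated with 1×10^−5 M compound plus β2 antagonist ICI-118551 for 1 h 40 min and re-dosed for 20 min in glucose-free medium. Uptake of 50 nM ^3H-2-deoxyglucose over 10 min was counted after NaOH lysis.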

CN(C)C(=O)N[C@H]1CC[C@@H](CC(C)(C)NC[C@H](O)c2cccc(F)c2)CC1 [Compound 457, (R)-2-{1,1-dimethyl-2-[(1s,4S)-4-(3,3-dimethylureido)cyclohexyl]ethylamino}-1-(m-fluorophenyl)-1-ethanol]
Emax at 10 µM [1]: 25 to 50%
Emax at 10 µM [2]: > 75%

CS(=O)(=O)N[C@H]1CC[C@H](CNC[C@H](O)c2cccc(F)c2)CC1 [Compound 311, (R)-1-(m-fluorophenyl)-2-({[(1r,4R)-4-(mesylamino)cyclohexyl]methyl}amino)-1-ethanol]
Emax at 10 µM [1]: < 25%
Emax at 10 µM [2]: 50 to 75%

O[C@@H](CNC[C@H]1CC[C@@H](OCc2ccccc2)CC1)c1cccc(F)c1 [Compound 262, (R)-1-(m-fluorophenyl)-2-({[(1s,4S)-4-(benzyloxy)cyclohexyl]methyl}amino)-1-ethanol]
Emax at 10 µM [1]: < 25%
Emax at 10 µM [2]: 25 to 50%

CC1(C)CC[C@H]([C@@H](O)c2cncc(F)c2)N1 [Compound 156, (S)-[(R)-5,5-dimethyl-2-pyrrolidinyl](5-fluoro-3-pyridyl)methanol]
Emax at 10 µM [1]: < 25%
Emax at 10 µM [2]: < 25%

CC1(C)CC[C@@H]([C@H](O)c2cccc(F)c2)N1 [Compound 144, (R)-[(S)-5,5-dimethyl-2-pyrrolidinyl](m-fluorophenyl)methanol]
Emax at 10 µM [1]: < 25%
Emax at 10 µM [2]: < 25%

CCCC(C)NCC(O)c1cc(Cl)c(O)c(Cl)c1 (stereo not drawn) [Compound 25, 1-(3,5-dichloro-4-hydroxyphenyl)-2-(1-methylbutylamino)-1-ethanol]
Emax at 10 µM [1]: < 25%
Emax at 10 µM [2]: < 25%

CCC[C@@H]1CCC[C@@H]([C@H](O)c2cccc(F)c2)N1 [Compound 116, (R)-[(2S,6R)-6-propyl-2-piperidyl](m-fluorophenyl)methanol]
Emax at 10 µM [1]: < 25%
Emax at 10 µM [2]: 25 to 50%

CC(C)(C)NC[C@H](O)c1cccc(C(F)(F)F)n1 [Compound 397, (S)-2-(tert-butylamino)-1-[6-(trifluoromethyl)-2-pyridyl]-1-ethanol]
Emax at 10 µM [1]: < 25%
Emax at 10 µM [2]: > 75%

O[C@H](c1cccc(F)c1)[C@H]1CC[C@@H](Cc2ccc(Cl)cc2)N1 [Compound 392, (R)-{(2R,5S)-5-[(p-chlorophenyl)methyl]-2-pyrrolidinyl}(m-fluorophenyl)methanol]
Emax at 10 µM [1]: < 25%
Emax at 10 µM [2]: > 75%

CO[C@H]1CC[C@@H](CNC[C@H](O)c2cncc(F)c2)CC1 [Compound 246, (R)-1-(5-fluoro-3-pyridyl)-2-({[(1s,4S)-4-methoxycyclohexyl]meth-yl}amino)-1-ethanol]
Emax at 10 µM [1]: < 25%
Emax at 10 µM [2]: 50 to 75%

O[C@@H](CNCCC[C@H]1CC[C@@H](OCc2ccccc2)CC1)c1cccc(F)c1 [Compound 277, (R)-1-(m-fluorophenyl)-2-{3-[(1s,4R)-4-(benzyloxy)cyclohexyl]pro-pylamino}-1-ethanol]
Emax at 10 µM [1]: < 25%
Emax at 10 µM [2]: 25 to 50%

CCOC(=O)CO[C@H]1CC[C@H](C(C)(C)NC[C@H](O)c2cccc(F)c2)CC1 [Compound 398, ethyl[(1R,4r)-4-{1-[(R)-2-(m-fluorophenyl)-2-hydroxyethylamino]-1-methylethyl}cycloehxyloxy]acetate]
Emax at 10 µM [1]: < 25%
Emax at 10 µM [2]: > 75%

CC(=O)N[C@H]1CC[C@@H](C[C@@H]2CC[C@H]([C@H](O)c3cccc(F)c3)N2)CC1 [Compound 484, N-[(1R,4s)-4-({(2S,5R)-5-[(R)-(m-fluorophenyl)hydroxymethyl]-2-pyrrolidinyl}methyl)cyclohexyl]acetamide]
Emax at 10 µM [1]: < 25%
Emax at 10 µM [2]: 50 to 75%

CS(=O)(=O)N(Cc1ccccc1)c1cccc(CC23CCC([C@H](O)c4cccc(F)c4)(CC2)N3)c1 [Compound 513, (R)-[4-({m-[(benzyl)-N-mesylamino]phenyl}methyl)-7-azabicyclo[2.2.1]hept-1-yl](m-fluorophenyl)methanol]
Emax at 10 µM [1]: < 25%
Emax at 10 µM [2]: 25 to 50%

O[C@@H](CNCCC[C@H]1CC[C@H](OCc2ccccc2)CC1)c1cncc(F)c1 [Compound 276, (R)-1-(5-fluoro-3-pyridyl)-2-{3-[(1r,4S)-4-(benzyloxy)cyclohexyl]pro-pylamino}-1-ethanol]
Emax at 10 µM [1]: < 25%
Emax at 10 µM [2]: 25 to 50%

CCC[C@@H]1CC[C@@H]([C@H](O)c2cccc(F)c2)N1 [Compound 132, (R)-[(2S,5R)-5-propyl-2-pyrrolidinyl](m-fluorophenyl)methanol]
Emax at 10 µM [1]: < 25%
Emax at 10 µM [2]: 25 to 50%

CO[C@H]1CC[C@@H](CCC(C)(C)NC[C@H](O)c2cncc(F)c2)CC1 [Compound 266]
Emax at 10 µM [1]: < 25%
Emax at 10 µM [2]: > 75%

CCCCNCC(O)c1ccc(F)c(N)c1F (stereo not drawn) [Compound 43, 1-(3-amino-2,4-difluorophenyl)-2-(butylamino)-1-ethanol]
Emax at 10 µM [1]: < 25%
Emax at 10 µM [2]: > 75%

CC(C)(C)NC[C@H](O)c1ccc(O)cn1 [Compound 95, 6-[(S)-2-(tert-butylamino)-1-hydroxyethyl]-3-pyridinol]
Emax at 10 µM [1]: < 25%
Emax at 10 µM [2]: 50 to 75%

O[C@@H](c1cncc(F)c1)C12CCC(COCc3ccc(F)cc3)(CC1)N2 [Compound 442, (S)-(4-{[(p-fluorophenyl)methoxy]methyl}-7-azabicyclo[2.2.1]hept-1-yl)(5-fluoro-3-pyridyl)methanol]
Emax at 10 µM [1]: < 25%
Emax at 10 µM [2]: 25 to 50%

CCC[C@@H]1CC[C@H]([C@H](O)c2ccccc2Cl)N1 [Compound 148, (R)-[(2R,5R)-5-propyl-2-pyrrolidinyl](o-chlorophenyl)methanol]
Emax at 10 µM [1]: < 25%
Emax at 10 µM [2]: > 75%

CC(=O)N[C@H]1CC[C@@H](CC(C)(C)NC[C@H](O)c2cccnc2C)CC1 [Compound 436, N-[(1S,4s)-4-{2-[(R)-2-hydroxy-2-(2-methyl-3-pyridyl)ethylamino]-2-methylpropyl}cyclohexyl]acetamide]
Emax at 10 µM [1]: < 25%
Emax at 10 µM [2]: 50 to 75%

COC(=O)[C@H]1CC[C@@H](CC(C)(C)NC[C@H](O)c2cccc(F)c2)CC1 [Compound 327, methyl (1S,4s)-4-{2-[(R)-2-(m-fluorophenyl)-2-hydroxyethylamino]-2-methylpropyl}cyclohexanecarboxylate]
Emax at 10 µM [1]: < 25%
Emax at 10 µM [2]: > 75%

CC(=O)N[C@H]1CC[C@@H](CC(C)(C)NC[C@H](O)c2cncc(F)c2)CC1 [Compound 467, N-[(1S,4s)-4-{2-[(R)-2-(5-fluoro-3-pyridyl)-2-hydroxyethylamino]-2-methylpropyl}cyclohexyl]acetamide]
Emax at 10 µM [1]: < 25%
Emax at 10 µM [2]: > 75%

CC12CC(C1)[C@@H]([C@@H](O)c1cccc(N)c1F)N2 [Compound 242, (S)-{(S)-1-methyl-2-azabicyclo[2.1.1]hex-3-yl}(3-amino-2-fluorophenyl)methanol]
Emax at 10 µM [1]: < 25%
Emax at 10 µM [2]: 50 to 75%

CCC[C@H](C)NC[C@H](O)c1cccc(F)c1 [Compound 51, (R)-2-[(S)-1-methylbutylamino]-1-(m-fluorophenyl)-1-ethanol]
Emax at 10 µM [1]: < 25%
Emax at 10 µM [2]: > 75%

CN(C)S(=O)(=O)[C@H]1CC[C@@H](CC(C)(C)NC[C@H](O)c2cccc(F)c2)CC1 [Compound 470, (R)-2-{1,1-dimethyl-2-[(1s,4S)-4-(dimethylaminosulfonyl)cyclohexyl]ethylamino}-1-(m-fluorophenyl)-1-ethanol]
Emax at 10 µM [1]: 25 to 50%
Emax at 10 µM [2]: > 75%
